Patent US20210076698A1, “METHODS OF MAINTAINING OR INCREASING GROWTH OR COGNITIVE DEVELOPMENT” (FONTERRA CO-OPERATIVE GROUP LIMITED, priority 2007, published 2021)

Key:
cholera toxin = cholera toxin (Vibrio cholerae serotype O1, UniProt P01556); settings: cited from earlier work
[1] = rats (Hungund et al, 1993); cited from earlier work
neuronal out growth = settings: cited from earlier work
human placenta = assay: Placental transfer trial, dual perfused human placental lobules (Example 3); assay type: in vitro ADME
Description: Dual perfused human lobules were taken from six placentae of uncomplicated term pregnancies (normal elective Caesarean patients). Maternal and fetal arterial and venous supplies were isolated, catheterised and the placenta maintained by perfusion of sterile krebs buffer (that also contains serum albumin to aid transport of lipophilic substances) at room temperature in a sterile air perfusion chamber at constant flow rate and pressure. The perfusion technique used was modified from Glance et al (1984) according to Collier et al (2004).
Equilibration was performed for 60 min to assess physical integrity of tissue and circuits (fetal arterial pressure <40 mmHg and leakage of perfusate from fetal to maternal circuit <2 ml/h) then the maternal and fetal reservoirs replaced with fresh media containing doses of test substances. Time zero and then hourly samples are collected from all circuits and stored frozen for analysis. Metabolic viability of the preparation is assessed with samples collected hourly from maternal and fetal arteries and analysed for oxygen and carbon dioxide saturation, electrolytes and glucose consumption (Bayer 865 Blood Gas Analyzer, Bayer Diagnostics and lactate production (Hitachi 917, Roche Diagnostics). 10 μg/mL of milk-derived ganglioside mixture (GM3+GD3—isolated from G600™ precursor described above) was added to the maternal reservoir. Perfusion was conducted for up to 3 hours using a closed loop system. Samples were taken from both reservoirs at that point (t=0) and at regular time-points, snap frozen in liquid nitrogen, and subsequently assayed for GM3, GD3, and lobule viability.
GM3 and GD3 contents of the perfusates were measured by LC-MS using a Hypersil APS2 column, normal phase acetonitrile gradient and detected in the LTQ orbitrap in negative ion full scan, as described below. Perfusate samples were “protein crashed” by addition into methanol, allowed to stand for 60 min at 4° C. before centrifugation (20,000×g). An aliquot (10-50 μL) was loaded onto an online C18 trap, washed (50% MeOH), before eluted onto a Hypersil APS2 column (Thermo Finnigan, MA, USA). Gangliosides were separated on a normal phase gradient, and detected in the LTQ Orbitrap Mass spectrometer (ThermoFinnigan, Ma, USA) in negative ion mode. The LC-MS system was calibrated using GD3 and GM3 standards purchased from Matreya (Pa, USA). Lobule viability was assessed by Glucose uptake and lactate production, measured with an Autoanalyzer.

[2] = 10 μg/mL GM3+GD3 mixture in maternal reservoir, perfusion up to 3 hours

cholera toxin, sequence (P01556 22-124 limits assumed): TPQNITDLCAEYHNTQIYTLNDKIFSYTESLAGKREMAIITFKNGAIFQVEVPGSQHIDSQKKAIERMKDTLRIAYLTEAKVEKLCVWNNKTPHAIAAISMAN

Substance: GD1a
- binding of cholera toxin (cholera toxin): negligible binding

Substance: Ganglioside GM1a
- crossing of the placenta [1]: cross the placenta

Substance: 9-O-acetyl GD3 [reference compound]
- effect on neuronal out growth (neuronal out growth): promotes

Substance: GD3
- effect on neuronal out growth (neuronal out growth): does not
- concentrations in foetal perfusate (human placenta; LC-MS): below assay sensitivity
- reduction in maternal concentrations (human placenta; average, all cases): 25-30%

Substance: GM2
- binding of cholera toxin (cholera toxin): negligible binding

Substance: GM3
- increase of foetal perfusate concentration over time (human placenta; [2]): approximately 6 fold
- transfer across the human placenta (human placenta; [2]): evidence of transfer
- reduction of maternal perfusate concentration (human placenta; on average, from the starting maternal concentration): half
- maternal perfusate concentration before reduction (human placenta; starting level in maternal perfusate): approximately 300 ng/ml

Substance: ganglioside GM1
- binding of cholera toxin (cholera toxin): specific
